In PMC6445163, “Design, synthesis, and evaluation of novel 2-phenylpropionic acid derivatives as dual COX inhibitory-antibacterial agents” (Journal of Enzyme Inhibition and Medicinal Chemistry, 2017):
≈ marks a conversion by molar mass, not a printed value.

How the values were obtained:
[1] = system: Klebsiella pneumoniae (NCTC 9633); test: broth microdilution MIC (CLSI M07-A9), resazurin; type: cell-based; details: 24 h
Protocol: (§1) Microbiological studies were performed according to following guides: CLSI reference […]-A9 broth microdilution method[49] for bacterial strains and EUCAST definitive (EDef 7.1) method[50] for Candida species. Synthesized compounds were tested for their in vitro growth inhibitory activity against Staphylococcus aureus (ATCC 25923), Enterococcus faecalis (ATCC 29212), Listeria monocytogenes (ATCC 1911), Klebsiella pneumoniae (NCTC 9633), Escherichia coli (ATCC 35218), E. coli (ATCC 25922) Candida albicans (ATCC 24433) Candida krusei (ATCC 6258) and Candida parapsilosis (ATCC 22019). Chloramphenicol and ketoconazole were used as control drugs. The cultures were obtained from the Mueller-Hinton broth (Difco) for the bacterial strains after overnight incubation at 37 °C. The yeasts were maintained in Roswell Park Memorial Institute (RPMI) after overnight incubation at 37 °C. […] Testing was carried out in Mueller-Hinton broth and RPMI at pH =7, and the two-fold serial dilutions technique was applied. The last well on the microplates containing only inoculated broth was kept as controls and the last well with no growth of microorganism was recorded to represent the minimum inhibitory concentration (MIC) expressed in μg/mL. For both the antibacterial and antifungal assays, the compounds were dissolved in DMSO. […] The completed plates were incubated for 24 h. At the end of the incubation, resazurin (20 μg/mL) was added into each well and plates were incubated for 2 h. MIC values were determined using a microplate reader at […]. Synthesized compounds (6a-6m) were evaluated for antimicrobial activity against various microorganisms such as Staphylococcus aureus (ATCC 25923), Enterococcus faecalis (ATCC 29212), Listeria monocytogenes (ATCC 1911), Klebsiella pneumoniae (NCTC 9633), Escherichia coli (ATCC 35218), E. coli (ATCC 25922)Candida albicans (ATCC 24433) Candida krusei (ATCC 6258) and Candida parapsilosis (ATCC 22019). […] Chloramphenicol and ketoconazole were used as standard drugs in the activity test. […] Besides, the compounds 6d, 6h, 6l and 6m indicated stronger antibacterial activity than the other compounds in the series.

[2] = system: Listeria monocytogenes (ATCC 1911); test: broth microdilution MIC (CLSI M07-A9), resazurin; type: cell-based; details: ATCC1911, 24 h
Protocol: as §1

[3] = system: Staphylococcus aureus (ATCC 25923); test: broth microdilution MIC (CLSI M07-A9), resazurin; type: cell-based; details: ATCC25923, 24 h
Protocol: as §1

[4] = system: Enterococcus faecalis (ATCC 29212); test: broth microdilution MIC (CLSI M07-A9), resazurin; type: cell-based; details: ATCC29212, 24 h
Protocol: as §1

[5] = system: Escherichia coli (ATCC 35218); test: broth microdilution MIC (CLSI M07-A9), resazurin; type: cell-based; details: for MIC: ATCC35218, 24 h, read-out: MIC Ec-1
Protocol: as §1

[6] = system: Escherichia coli (ATCC 25922); test: broth microdilution MIC (CLSI M07-A9), resazurin; type: cell-based; details: ATCC25922, 24 h, read-out: MIC Ec-2
Protocol: as §1

COX-1 = biological target: T1, COX-1 (Ovis aries, UniProt P05979); test: fluorometric COX-1 inhibitor screening kit assay; type: biochemical; details: for SI (selectivity index): IC50 (COX-1)/IC50 (COX-2); for IC50: fluorometric kit, 25 °C; for Selectivity: isoform preferred according to SI
T1 construct: purchased Biovision K548-100
T1 sequence (P05979 25-600): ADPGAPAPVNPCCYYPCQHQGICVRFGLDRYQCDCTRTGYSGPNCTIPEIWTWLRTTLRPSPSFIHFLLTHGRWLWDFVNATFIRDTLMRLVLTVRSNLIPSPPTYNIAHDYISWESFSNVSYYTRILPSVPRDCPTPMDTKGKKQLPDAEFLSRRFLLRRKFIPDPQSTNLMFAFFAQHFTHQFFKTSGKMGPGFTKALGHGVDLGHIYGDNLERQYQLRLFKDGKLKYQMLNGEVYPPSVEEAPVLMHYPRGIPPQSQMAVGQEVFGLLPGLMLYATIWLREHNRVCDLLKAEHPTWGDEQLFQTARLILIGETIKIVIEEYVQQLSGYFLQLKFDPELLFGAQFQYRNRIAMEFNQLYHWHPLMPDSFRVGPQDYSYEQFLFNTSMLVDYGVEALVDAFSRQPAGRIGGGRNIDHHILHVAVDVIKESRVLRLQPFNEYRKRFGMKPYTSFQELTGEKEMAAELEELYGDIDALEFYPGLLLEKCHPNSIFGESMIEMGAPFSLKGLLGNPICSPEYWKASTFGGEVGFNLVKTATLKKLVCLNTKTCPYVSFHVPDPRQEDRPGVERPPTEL
Protocol: (§2) Inhibitory potency of the compounds against COX-1 and COX-2 enzymes was determined using fluorometric COX-1 and COX-2 inhibitor screening kits (Biovision, Zurich, Switzerland). Experimental protocol was followed as described in the guides of the supplier[47]^,[48]. All of the pipettings in the assay were performed by Biotek Precision robotic system (BioTek Instruments, Inc., Winooski, VT). […] Appropriate two points (T1 and T2) in the linear range of the plot were chosen, and the corresponding fluorescence values (RFU1 and RFU2) were obtained. The slope for all samples, including enzyme control (EC), by dividing the net ΔRFU (RFU2–RFU1) values by the time ΔT (T2–T1) were calculated by using following equation: % Relative inhibition=(Slope of EC-Slope of S/Slope of EC)×100
(§3) This initial in vitro assay was done with two concentrations (10^−3 and 10^−4 M) for all compounds. […] The IC50 value was calculated from the plots of enzyme activity against concentrations by applying regression analyses on GraphPad Prism Version 5 (GraphPad Software, La Jolla, CA).
(§4) Selectivity indexes (SI) were expressed as IC50 (COX-1)/IC50 (COX-2). Selectivity toward COX-2 decreases as the corresponding SI decreases while selectivity toward COX-1 isoform increases as the corresponding SI decreases.

COX-2 = biological target: T2, COX-2 (Homo sapiens, UniProt P35354); test: fluorometric COX-2 inhibitor screening kit assay; type: biochemical; details: 25 °C
T2 construct: purchased Biovision K547-100
T2 sequence (P35354 18-604): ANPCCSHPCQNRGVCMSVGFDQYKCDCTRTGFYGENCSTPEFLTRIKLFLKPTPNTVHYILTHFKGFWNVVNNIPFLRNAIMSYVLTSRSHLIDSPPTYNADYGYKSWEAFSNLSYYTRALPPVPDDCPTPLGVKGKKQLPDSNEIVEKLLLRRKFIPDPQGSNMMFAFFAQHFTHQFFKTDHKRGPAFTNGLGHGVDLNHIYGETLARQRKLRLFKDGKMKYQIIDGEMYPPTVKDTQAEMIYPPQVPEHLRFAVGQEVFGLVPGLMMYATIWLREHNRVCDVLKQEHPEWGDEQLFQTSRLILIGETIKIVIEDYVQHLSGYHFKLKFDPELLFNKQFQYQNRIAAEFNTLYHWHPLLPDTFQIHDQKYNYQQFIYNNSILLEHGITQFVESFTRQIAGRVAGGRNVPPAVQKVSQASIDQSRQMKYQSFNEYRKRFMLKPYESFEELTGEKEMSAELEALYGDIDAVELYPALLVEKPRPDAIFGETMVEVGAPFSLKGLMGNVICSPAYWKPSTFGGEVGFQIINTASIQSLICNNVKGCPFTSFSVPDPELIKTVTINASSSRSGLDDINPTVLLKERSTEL
Protocol: as §2, §3, §4

[7] = system: Candida albicans (ATCC 24433); test: broth dilution MIC (EUCAST EDef 7.1), resazurin; type: cell-based; details: ATCC24433, 24 h
Protocol: as §1

[8] = system: Candida parapsilosis (ATCC 22019); test: broth dilution MIC (EUCAST EDef 7.1), resazurin; type: cell-based; details: ATCC22019, 24 h
Protocol: as §1

[9] = system: Candida krusei (ATCC 6258); test: broth dilution MIC (EUCAST EDef 7.1), resazurin; type: cell-based; details: Pichia kudriavzevii, ATCC6258, 24 h
Protocol: as §1

SMILES | MIC Kp [1] | MIC [2] | MIC [3] | MIC [4] | MIC Ec-1 ([5]; 24 h) | MIC [5] | MIC [6] | SI (selectivity index) (COX-1) | IC50 (COX-1) | Selectivity (COX-1) | IC50 (COX-2) | MIC [7] | MIC [8] | MIC [9] | melting point
O=C(N[C@H](CO)[C@H](O)c1ccc([N+](=O)[O-])cc1)C(Cl)Cl [Chloramphenicol, reference compound] | 12.5 µg/mL (≈ 38.7 µM) | 12.5 µg/mL (≈ 38.7 µM) | 6.25 µg/mL (≈ 19.3 µM) | 6.25 µg/mL (≈ 19.3 µM) | 6.25 µg/mL (≈ 19.3 µM) | 6.25 µg/mL (≈ 19.3 µM) | 6.25 µg/mL (≈ 19.3 µM) |  |  |  |  |  |  |  | 
Cc1ccc(C(C)C(=O)O)cc1 (centres unmarked) [Compound 4, 2-(4-methylphenyl) propionic acid] | 50 µg/mL (≈ 304 µM) | 50 µg/mL (≈ 304 µM) | 50 µg/mL (≈ 304 µM) | 50 µg/mL (≈ 304 µM) |  | 25 µg/mL (≈ 152 µM) | 50 µg/mL (≈ 304 µM) | 0.59 | 38.2 µM | COX-1 | 64.3 µM | 100 µg/mL (≈ 609 µM) | 50 µg/mL (≈ 304 µM) | 50 µg/mL (≈ 304 µM) | 
CC(C(=O)O)c1ccc(CSC2=NCCS2)cc1 (centres unmarked) [Compound 6a, 2-(4-(((4,5-Dihydrothiazol-2-yl)thio)methyl)phenyl)propanoic acid] | 6.25 µg/mL (≈ 22.2 µM) | 12.5 µg/mL (≈ 44.4 µM) | 12.5 µg/mL (≈ 44.4 µM) | 12.5 µg/mL (≈ 44.4 µM) |  | 6.25 µg/mL (≈ 22.2 µM) | 12.5 µg/mL (≈ 44.4 µM) | 0.59 | 22.2 µM | COX-1 | 37.8 µM | 100 µg/mL (≈ 355 µM) | 100 µg/mL (≈ 355 µM) | 100 µg/mL (≈ 355 µM) | 154.2 to 156.3 °C
CC(C(=O)O)c1ccc(CSc2nccn2C)cc1 (centres unmarked) [Compound 6b, 2-(4-(((1-Methyl-1H-imidazol-2-yl)thio)methyl)phenyl)propanoic acid] | 6.25 µg/mL (≈ 22.6 µM) | 12.5 µg/mL (≈ 45.2 µM) | 12.5 µg/mL (≈ 45.2 µM) | 12.5 µg/mL (≈ 45.2 µM) |  | 6.25 µg/mL (≈ 22.6 µM) | 12.5 µg/mL (≈ 45.2 µM) | 0.60 | 28.6 µM | COX-1 | 47.4 µM | 100 µg/mL (≈ 362 µM) | 50 µg/mL (≈ 181 µM) | 100 µg/mL (≈ 362 µM) | 
CC(C(=O)O)c1ccc(CSc2nc[nH]n2)cc1 (centres unmarked) [Compound 6c, 2-(4-(((1H-1,2,4-Triazol-3-yl)thio)methyl)phenyl)propanoic acid] | 12.5 µg/mL (≈ 47.5 µM) | 12.5 µg/mL (≈ 47.5 µM) | 12.5 µg/mL (≈ 47.5 µM) | 12.5 µg/mL (≈ 47.5 µM) |  | 6.25 µg/mL (≈ 23.7 µM) | 12.5 µg/mL (≈ 47.5 µM) | 0.53 | 19.5 µM | COX-1 | 36.7 µM | 100 µg/mL (≈ 380 µM) | 50 µg/mL (≈ 190 µM) | 50 µg/mL (≈ 190 µM) | 
CC(C(=O)O)c1ccc(CSc2nncn2C)cc1 (centres unmarked) [Compound 6d, 2-(4-(((4-Methyl-4 H-1,2,4-triazol-3-yl)thio)methyl)phenyl)propanoic acid] | 6.25 µg/mL (≈ 22.5 µM) | 12.5 µg/mL (≈ 45.1 µM) | 12.5 µg/mL (≈ 45.1 µM) | 6.25 µg/mL (≈ 22.5 µM) |  | 6.25 µg/mL (≈ 22.5 µM) | 12.5 µg/mL (≈ 45.1 µM) | 0.62 | 24.6 µM | COX-1 | 39.9 µM | 50 µg/mL (≈ 180 µM) | 50 µg/mL (≈ 180 µM) | 50 µg/mL (≈ 180 µM) | 
CC(C(=O)O)c1ccc(CSc2nnnn2C)cc1 (centres unmarked) [Compound 6e, 2-(4-(((1-Methyl-1 H-tetrazol-5-yl)thio)methyl)phenyl)propanoic acid] | 6.25 µg/mL (≈ 22.5 µM) | 12.5 µg/mL (≈ 44.9 µM) | 12.5 µg/mL (≈ 44.9 µM) | 12.5 µg/mL (≈ 44.9 µM) |  | 6.25 µg/mL (≈ 22.5 µM) | 12.5 µg/mL (≈ 44.9 µM) | 0.60 | 21.8 µM | COX-1 | 36.3 µM | 50 µg/mL (≈ 180 µM) | 50 µg/mL (≈ 180 µM) | 50 µg/mL (≈ 180 µM) | 
CC(=O)N1CCN(c2ccc(OCC3COC(Cn4ccnc4)(c4ccc(Cl)cc4Cl)O3)cc2)CC1 (centres unmarked) [Ketoconazole, reference compound] |  |  |  |  |  |  |  |  |  |  |  | 0.78 µg/mL (≈ 1.47 µM) | 0.78 µg/mL (≈ 1.47 µM) | 0.78 µg/mL (≈ 1.47 µM) | 
